According to publication PMC5397516, “Insights into the Mode of Action of the Sactibiotic Thuricin CD” (Frontiers in Microbiology, 2017):
Read-outs that look alike come from different tables or passages of the source. Where no end group is shown, it is not given here.

Tests used:
B. firmus DPC6349 cells = test: Time course flow cytometry of membrane potential (DiOC2(3)), cell size (FSC) and granularity (SSC); format: cell-based, Bacillus firmus
Excerpt: Used alone or in combination with fluorescent probes, FC enables the assessment of various structural and functional cell properties, often leading to a deeper characterization of the physiological heterogeneity of a microbial population ([Díaz et al., 2010]). Membrane potential in microbial cells can be detected by FC following staining with fluorescent lipophilic cell-permeant probes such as DiOC2(3). […] Conversely, fluorescence-independent monitoring by FC of the forward (FSC) and side-angle (SSC) light scattering properties of a bacterial population provides useful information about morphological parameters such as cell size and internal granularity/complexity, respectively ([Díaz et al., 2010]; [Shapiro, 2015]). The impact of the thuricin CD peptides, Trnα and Trnβ, on the membrane potential and morphology of sensitive B. firmus DPC6349 cells was therefore assessed by FC as follows. Cells from a 100 μl aliquot of an overnight culture were recovered by centrifugation (8260 g for 10 min), diluted 10-fold in 1 ml of LB broth and activated by incubation at 37°C for 30 min. At this point, the cells were diluted a further 25-fold and stained for 30 min with a solution of 6.3 μM DiOC2 (3) (Thermo Fisher Scientific), prepared in PBS and containing 0.21% glucose to energize the cells and thereby generate a large membrane potential. Aliquots of 1.4 ml of stained samples were acquired at medium flow rate (35 μl/sec) using a BD Accuri C6 flow cytometer (Becton Dickinson, Belgium) and a threshold of 10000 on FSC to minimize background. Acquisition and analysis of DiOC2(3) fluorescence (FL3, > 670 nm long pass), cell size (FSC) and cell complexity/granularity (SSC) were carried out using the BD Accuri C6 software v. 1.0.2 (Becton Dickinson, Belgium). The microbial population was identified based on its light scattering properties on FSC versus SSC bi-plots and a gating strategy was used to discriminate it from background particles and cell debris. The time course changes in membrane potential and morphology of DPC6349 cells following challenge with an antimicrobial were assessed using the “Run Unlimited” function of the C6 flow cytometer. Unchallenged DiOC2(3)-stained cells were initially acquired for 2 min to establish baseline levels of membrane potential and morphological parameters. Subsequently, a small aliquot of a 10–15x stock solution of an antimicrobial in PBS was added and its effect on the physiology of the sensitive target monitored over 15–25 min. The impact on the host’s membrane potential of individual, combined and sequentially added thuricin CD peptides, Trnα or Trnβ, was compared to those exerted by the proton motive force (PMF)-depleting agents Nisin A ([Bruno et al., 1992]), lacticin 3147 ([McAuliffe et al., 1998]), and valinomycin ([Shapiro, 2004]). Stock solutions of valinomycin were prepared in DMSO, whereas diluted working solutions were made using PBS. To generate high external potassium conditions and trigger the membrane depolarizing activity of valinomycin ([Shapiro, 2004]; [Cronin, 2015]), 150mM KCl was added to the PBS used to prepare the DiOC2(3) staining solution. Assays were conducted in duplicate.

B. firmus DPC6349 = test: Minimum inhibitory concentration (MIC) assay, two-fold serial dilutions in LB broth; format: cell-based, Bacillus firmus; conditions: for MIC, fold higher than thuricin CD: B. firmus DPC6349, in molar values
Description: In this study, B. firmus DPC6349 was utilized as a surrogate thuricin CD-sensitive host, in lieu of thuricin CD-sensitive C. difficile strains. The aerobic growth conditions of DPC6349, in conjunction with its class I status, facilitated the FC experiments in this study. MIC assays were conducted as previously described with minor modifications ([Mathur et al., 2013]). Briefly, cells of the bacteriocin-sensitive strain B. firmus DPC6349 were grown overnight for 16 h in LB broth at 37°C with vigorous agitation (150 rpm). The following day, the cells were subcultured until they reached mid-logarithmic phase (an OD600 of approximately 0.5). At this point, cells were diluted such that the final inoculum for MIC assays was approximately 5 × 10^5 cfu/ml. Thuricin CD peptides, Nisin A and lacticin 3147 peptides were resuspended in LB broth. The potassium ionophore, valinomycin, was initially reconstituted in DMSO (Molecular Probes) prior to diluting in PBS and subsequently diluting in LB broth. All antimicrobials were finally diluted in LB broth to give the desired starting concentrations and two-fold serial dilutions were performed in 96-well microtitre plates, for MIC assays. MIC readings were taken at 18 h and the MIC was defined as the lowest concentration of the antimicrobial at which there was no visible growth of the target strain. Assays were conducted in triplicate.

[1] = B. firmus DPC6349, approx. 5 × 10^5 cfu/ml, LB broth, read at 18 h, no visible growth, triplicate

## O=C(N[C@H](CO)[C@H](O)c1ccc([N+](=O)[O-])cc1)C(Cl)Cl [Chloramphenicol, chloramphenicol]
B. firmus DPC6349 cells; (approximately 3x MIC), DiOC2(3)
  Effect on membrane potential and cell size: no membrane depolarization and reduction in cell size
B. firmus DPC6349; [1]
  MIC: 2.423 µg/mL
B. firmus DPC6349
  MIC, fold higher than thuricin CD: 60 fold
B. firmus DPC6349; Cytobacillus firmus, B. firmus DPC6349, approx. 5 × 10^5 cfu/ml, LB broth, read at 18 h, no visible growth, triplicate, read-out: MIC
  MIC: 7.5 µM

## CC(C)[C@@H]1NC(=O)[C@H](C)OC(=O)[C@@H](C(C)C)NC(=O)[C@@H](C(C)C)OC(=O)[C@H](C(C)C)NC(=O)[C@H](C)OC(=O)[C@@H](C(C)C)NC(=O)[C@@H](C(C)C)OC(=O)[C@H](C(C)C)NC(=O)[C@H](C)OC(=O)[C@@H](C(C)C)NC(=O)[C@@H](C(C)C)OC1=O [Valinomycin, valinomycin]
B. firmus DPC6349 cells; 156 nM (0.25x MIC), 150 mM extracellular KCl
  Effect on cell size and granularity: no reduction in cell size or granularity
B. firmus DPC6349 cells; 156 nM (0.25x MIC), 150 mM extracellular KCl, DiOC2(3)
  Effect on membrane potential: immediate and sharp membrane depolarization
B. firmus DPC6349; [1]
  MIC: 0.69 µg/mL
B. firmus DPC6349
  MIC, fold higher than thuricin CD: five-fold higher
B. firmus DPC6349; Cytobacillus firmus, DPC6349, 18 h
  MIC: 0.625 µM

## Nisin A (ITSISLCTPGCKTGALMGCNMKTATCHCSIHVSK; also: lantibiotic post-translational modifications (thioether rings), not given here; UniProt P13068 24-57, looked up) [pore-forming single-component lantibiotic bacteriocin]
B. firmus DPC6349 cells; 3 μM (approximately 10x MIC)
  Effect on cell size (FSC) and granularity (SSC): decreases in cell size (FSC) and granularity/complexity (SSC)
B. firmus DPC6349 cells; 3 μM (approximately 10x MIC), DiOC2(3) red fluorescence
  Effect on membrane potential: very fast membrane depolarization
B. firmus DPC6349 cells; 3 μM (approximately 10x MIC), DiOC2(3)-stained energized cells, duplicate
  Time to membrane depolarization after adding the peptide: ≤ 4 min
B. firmus DPC6349; [1]
  MIC: 1.046 µg/mL
B. firmus DPC6349; B. firmus DPC6349, approx. 5 × 10^5 cfu/ml, LB broth, read at 18 h, no visible growth, triplicate, read-out: MIC
  MIC: 0.312 µM
B. firmus DPC6349
  MIC, fold higher than thuricin CD: approximately 2.5 fold
